Results on three molecules are retold here after patent US20250032448A1, “COMPOUND FOR USE IN THE TREATMENT AND/OR PREVENTION OF PARASITIC MEDIATED DISEASES” (priority 2016, published 2025).

A short description of one data set: in vitro. To be noted: human. How it is done:
(§1) Serial dilutions were performed using complete media (RPMI supplemented with 10% foetal bovine serum). The final concentration of DMSO for all test samples was not more than 0.4%.
(§2) Cytotoxicity was determined using the WST-1 assay (WST-1 cell proliferation reagent, Roche, Singapore). Exponentially growing NL20 cells were plated in 96-well plates at an optimized cell density of 3.5×10^4 cells/100 μl. The adherent cells were incubated overnight at 37° C. and 5% CO2 to allow attachment. After 48 h of treatment with test samples, the media were aspirated and replaced with 10% v/v WST-1 in complete media. The plates were incubated for 30 min. The absorbance in each well was quantitated at 440 nm against a reference wavelength of 650 nm using a microplate reader (EnSpire Multimode Plate Reader, PerkinElmer, USA).
(§3) Cell viability was expressed as a percentage of the vehicle control. […] Each reported value is the mean±SD from three independent experiments. The selectivity index (SI) was determined by taking the ratio of IC50 against P. falciparum and CC50 against NL20 cells.

In the next data set the test system is NL20 cells. Description: Cytotoxicity assay (WST-1). The procedure:
as §1, §2, §3

For data set [1], the system named is Plasmodium falciparum Dd2 (chloroquine-resistant strain). Description: In vitro drug sensitivity assay (modified WHO microtest), schizont maturation. Type of data set: cell-based. The procedure: (§4) For malaria culture, venous blood (not more than 50 ml) was collected by venepuncture from healthy adult volunteers. Host leukocytes were removed using a CF11 column, and packed infected red blood cells were used for the in vitro drug sensitivity assay. Ethical approval for this study was obtained from the Institutional Review Board, National University of Singapore (IRB protocol reference: B-14-056).
(§5) Parasites were thawed and grown in leukocyte-depleted red blood cells at 2% haematocrit at 37° C. in controlled conditions (3% oxygen, 4% carbon dioxide and 93% nitrogen), in RPMI 1640 tissue culture medium supplemented with 50 μg/ml hypoxanthine, 25 mM 4-(2-hydroxyethyl) piperazine-1-ethanesulfonic acid (HEPES), 0.3 g/L L-glutamine, 11 mM glucose, 25 mM NaHCO3, 2.5 μg/ml gentamicin and 0.5% w/v Albumax II.
(§6) Parasites were synchronized using sorbitol treatment. Red blood cells were resuspended in 5% (w/v) D-sorbitol and incubated at 37° C. for 20 minutes, after which the erythrocytes were washed twice, resuspended in RPMI and returned to culture conditions. Thin smears were made before and after each experiment to determine parasitaemia and parasite stage.
(§7) Crude extracts or fractions were preliminarily screened at a single concentration. For preliminary screening of isolated compounds, the starting concentrations used were 11.36 μg/ml and 5.953 μg/ml. Duplicates were performed. […] Seven concentrations of serial dilutions (two-fold) of each extract were added in duplicate on the 96-well pre-dosed drug plates (Nunc, Singapore). […] Triplicates were performed for IC50 determination.
(§8) 200 μl of a 2% haematocrit blood medium mixture consisting of RPMI 1640, […] gentamicin sulphate, 25 mM PEPES, 11 mM glucose, 200 μM hypoxanthine, and 0.5% w/v Albumax II (Gibco, Singapore) was added to each well of plates pre-dosed with the extracts. The parasites were cultured continuously in vented culture flasks in a gas chamber at 37° C. with 5% CO2 until they reached mature stage.
(§9) Thick blood smears were made from each well and stained with 5% Giemsa solution for 15 mins, and examined microscopically. The average number of schizonts (defined as parasites with five or more chromatin dots visible under microscopy) remaining at the end of the 42-48 hour incubation period per 100 parasites in each well was determined by microscopy, and normalized to the control well. Ring stage parasites and gametocytes were not included in the count. The dose-response curves were analysed using nonlinear regression analysis, and the concentration which inhibited 50% growth (IC50) was derived using an inhibitory sigmoid Emax model (Le Nagard et al. 2011).

The test system of data set [2] is Plasmodium falciparum 3D7 (chloroquine-sensitive strain). The data set is described as above. Type of data set: cell-based. How it is done: as §4, §5, §6, §7, §8, §9
The test system of the next data set is uninfected host RBCs. The class given is cell-based. To be noted: human, 1 h. How it is done:
The toxicity of anisolactone in uninfected host RBCs was evaluated using the haemolysis assay, according to a protocol described previously by Sarkar et al. (2016) with some modifications. Freshly obtained RBCs were washed thrice with PBS (pH 7.4). The haemolysis assay was performed at 2% hematocrit with two-fold serial dilutions from 0.1 mg/ml of test compounds in a final volume of 200 μl, followed by incubation at 37° C. for 1 h. 1% Triton-X (v/v) was used as a positive control. Non-specific haemolysis was corrected for by using untreated RBCs as negative control. After incubation, the plates were centrifuged at 2000 rpm for 5 min and the absorbance of the supernatant was measured at 540 nm using a spectrophotometric plate reader (Tecan Sunrise, Switzerland) to measure the amount of haemoglobin released upon RBC lysis. The percentage of haemolysis was calculated as follows: [(Optical density (OD)540 of sample−OD540 of PBS)/(OD540 of 1% Triton X-100−OD540 of PBS)]×100. The compounds were tested in triplicates. Ethics approval for this study was obtained from the Institutional Review Board, National University of Singapore (IRB protocol reference: B-14-056).

Setting [3] is: DD2, read-out: IC50 (in μg/ml) against P. falciparum Dd2.
Setting [4] is: DD2, read-out: IC50 against P. falciparum Dd2 (molar value in brackets).
Where [5] appears, read: 3D7, read-out: IC50 (in μg/ml) against P. falciparum 3D7.
[6] abbreviates: 3D7, read-out: IC50 against P. falciparum 3D7 (Table 4).
Setting [7] is: 3D7, read-out: IC50 against P. falciparum 3D7 (molar value in brackets).

≈ marks a conversion by molar mass, not a printed value. Where two headings read alike, the source gives them in different places.

The molecule `C[C@H]1[C@H](OC(=O)CCC(=O)O)O[C@@H]2O[C@@]3(C)CC[C@H]4[C@H](C)CC[C@@H]1[C@@]24OO3` [Artesunate, artesunate] came in with a CC50 at 48 h in “in vitro” of 5.63 ± 0.82 µg/mL (≈ 14.6 µM). Also, the “SI (selectivity index)” value with NL20 cells (P. falciparum 3D7 IC50 versus NL20 CC50) is 8123. In addition, the IC50 in data set [1] (setting [3]) came out at 0.00211 ± 6.8e-07 µg/mL; in data set [1] (setting [4]), 0.00548 µM; in data set [2] (setting [5]) it was 0.000693 ± 1.11e-08 µg/mL; in data set [2] (setting [6]) it was 0.000693 µg/mL; in data set [2] (setting [7]) it was 0.0018 µM.

Regarding `CCN(CC)CCCC(C)Nc1ccnc2cc(Cl)ccc12` (centres unmarked) [Chloroquine, chloroquine diphosphate], the IC50 in data set [1] (setting [3]) was 0.16 ± 0.04 µg/mL; in data set [1] (setting [4]), 0.31 µM; in data set [2] (setting [5]) it was 0.0128 ± 1.4e-05 µg/mL; in data set [2] (setting [6]) it was 0.0128 µg/mL; in data set [2] (setting [7]) it was 0.0244 µM.

In the case of `CC1=CC(C/C(C)=C/COc2c3ccoc3cc3oc(=O)ccc23)OC1=O` (centres unmarked) [Compound 1, anisolactone], the “cytotoxic effects on host cells (NL20)” value with NL20 cells is listed as “did not exhibit cytotoxic effects”. For the same molecule, in the data set on uninfected host RBCs, the “% Haemolysis” value was determined as 0.99 ± 0.28%. For the same molecule, the IC50 in data set [2] (3D7, as used for the selectivity index, read-out: IC50 against P. falciparum 3D7 (Table 4)) is 7.5 µg/mL; in data set [2] (3D7, n = 3, 42-48 hour incubation, read-out: IC50 (in μg/ml) against P. falciparum 3D7), 7.5 µg/mL; in data set [2] (3D7, n=3, read-out: IC50 against P. falciparum 3D7 (molar value in brackets)) it was 20.5 µM.
